Legend:
[1] = target: T1, delF508-CFTR-HRP (Homo sapiens, UniProt P13569, DEL508-508); experiment: Measurement of delF508-CFTR-HRP surface expression in CFBE41o- cells (HRP luminescence); format: cell-based; settings: for Emax: CFBE41o-, read-out: DelF508-CFTR-HRP Amax %; for EC50: mean of at least two replicates;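 for DelF508-CFTR-HRP Amax %: percent efficacy relative to a reference CFTR corrector compound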
T1 construct: expressed in transfected cells
How it was run: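 EC50 derived by logistic regression of triplicate surface-HRP luminescence, plate-normalized to the lowest-concentration median. Doxycycline (500 ng/mL, 48 h) induced delF508-CFTR-HRP in CFBE41o- cells; compounds then applied 24 h at 37° C, 10 μM top, 3-fold over 10 points.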

[2] = target: T2, delF508-CFTR (Homo sapiens, UniProt P13569, DEL508-508); experiment: delF508-CFTR functional activity in primary human bronchial epithelial cells (HBECs), Multi-Transepithelial Clamp Circuit (MTECC-24) assay, equivalent short circuit current; format: cell-based; settings: primary CF HBECs; for MTECC24 CFHBEC-Amax %: relative to reference combination 2 μM 3-(6-(1-(2,2-difluorobenzo[d][1,3]dioxol-5-yl)cyclopropane-1-carboxamido)-3-methylpyridin-2-yl)benzoic acid (24 h) + 0.5 μM N-(2,4-di-tert-butyl-5-hydroxyphenyl)-4-oxo-1,4-dihydroquinoline-3-carboxamide; for EC50: test compound added 24 h before assay, potentiator (S)-3-amino-6-methoxy-N-(3,3,3-trifluoro-2-hydroxy-2-methylpropyl)-5-(trifluoromethyl)picolinamide present at assay, mean of at least two replicates, read-out: MTECC24 CFHBEC-EC50
T2 construct: functional activity of the CFTR channel (Chloride ion transport) in patient derived primary human bronchial epithelial cells; host or cells: patient-derived primary human bronchial epithelial cells (HBECs), delF508-CFTR
T2 sequence (P13569 with tags, fused parts or gaps DEL508-508): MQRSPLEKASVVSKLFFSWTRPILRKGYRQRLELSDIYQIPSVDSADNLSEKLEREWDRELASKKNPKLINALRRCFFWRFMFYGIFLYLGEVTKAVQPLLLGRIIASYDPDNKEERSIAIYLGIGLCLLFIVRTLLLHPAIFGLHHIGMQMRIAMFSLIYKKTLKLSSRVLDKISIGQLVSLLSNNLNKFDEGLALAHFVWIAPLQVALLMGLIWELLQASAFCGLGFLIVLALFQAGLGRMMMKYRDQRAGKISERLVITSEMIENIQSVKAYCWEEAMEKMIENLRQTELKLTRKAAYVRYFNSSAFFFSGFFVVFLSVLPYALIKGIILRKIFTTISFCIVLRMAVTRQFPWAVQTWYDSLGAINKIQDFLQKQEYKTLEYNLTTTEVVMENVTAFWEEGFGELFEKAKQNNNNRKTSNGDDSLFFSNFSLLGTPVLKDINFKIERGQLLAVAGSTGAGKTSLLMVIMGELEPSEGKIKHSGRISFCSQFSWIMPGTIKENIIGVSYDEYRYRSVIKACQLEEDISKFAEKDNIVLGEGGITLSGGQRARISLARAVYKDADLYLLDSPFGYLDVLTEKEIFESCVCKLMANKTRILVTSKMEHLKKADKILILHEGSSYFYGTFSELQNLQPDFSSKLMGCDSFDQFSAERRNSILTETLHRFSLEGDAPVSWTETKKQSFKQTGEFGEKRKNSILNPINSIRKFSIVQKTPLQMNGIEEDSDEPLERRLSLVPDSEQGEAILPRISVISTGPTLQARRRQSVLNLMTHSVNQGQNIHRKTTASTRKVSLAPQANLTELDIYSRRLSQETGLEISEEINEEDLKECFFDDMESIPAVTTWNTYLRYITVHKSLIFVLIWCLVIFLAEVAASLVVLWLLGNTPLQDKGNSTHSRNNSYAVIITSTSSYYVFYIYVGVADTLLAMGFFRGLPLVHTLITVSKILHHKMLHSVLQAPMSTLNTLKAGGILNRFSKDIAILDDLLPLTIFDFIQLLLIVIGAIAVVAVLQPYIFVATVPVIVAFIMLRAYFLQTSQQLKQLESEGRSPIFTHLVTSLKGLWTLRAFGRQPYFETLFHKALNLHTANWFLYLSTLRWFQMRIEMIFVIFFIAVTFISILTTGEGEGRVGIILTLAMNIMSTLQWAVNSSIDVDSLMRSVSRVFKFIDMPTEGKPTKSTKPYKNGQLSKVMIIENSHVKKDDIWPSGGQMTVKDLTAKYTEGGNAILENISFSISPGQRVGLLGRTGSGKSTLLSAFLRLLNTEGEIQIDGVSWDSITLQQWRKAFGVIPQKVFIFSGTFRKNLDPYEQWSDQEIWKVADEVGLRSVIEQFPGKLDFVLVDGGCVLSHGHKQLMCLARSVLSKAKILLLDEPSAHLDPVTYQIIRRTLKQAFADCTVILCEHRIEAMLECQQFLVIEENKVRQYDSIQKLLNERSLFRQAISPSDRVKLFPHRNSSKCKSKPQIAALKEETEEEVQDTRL
Source text: Measurement of delF508-CFTR Functional Activity in Primary Human Bronchial Epithelial Cells (HBECs) Using Multi-Transepithelial Clamp Circuit (MTECC-24) Assay
This assay measures the functional activity of the CFTR channel (Chloride ion transport) in patient derived primary human bronchial epithelial cells with forskolin activation and in the presence of the CFTR corrector wherein the corrector is a compound of the invention and the potentiator is (S)-3-amino-6-methoxy-N-(3,3,3-trifluoro-2-hydroxy-2-methylpropyl)-5-(trifluoromethyl)picolinamide.
Primary human delF508-CFTR bronchial epithelial cells were purchased from Asterand and cultured according to previously established methods (Fulcher et al. (2005) Methods Mol Med 107: 183-206). Briefly, vendor supplied cells were rapidly defrosted and added to a T175 flask in 50 mL growth media (Lonza BEBM media with Lonza BEGM singlequots). Media was replaced after 24 h and then cells were fed every other day until cells were 80-90% confluent, at which point cells were cryopreserved. These P1 vials were thawed at 37° C. as needed and added to T175 flasks in 50 mL growth media at 5×10^5 cells/flask. Media was replaced after 24 h, and then cells were fed every other day until 80-90% confluent. Cells were lifted with 5 mL Accutase at 37° C. for 5 minutes, centrifuged at 1000 rpms for 5 min (300 g), and resuspended in differentiation media (50% BEBM in DMEM, BEGM singlequots, all trans retinoic acid (5×10·8M)). Cells were then counted and cell suspension was added to collagen coated inserts at 3×10^4 cells/insert in 0.15 mL with 0.5 mL differentiation media on the basolateral side.
Apical and basolateral media were replaced on alternate days, and following day 7 (or when confluent plus 2 days), air liquid interface was established for approximately two weeks by removal of apical media. One day prior to use on the MTECC24 system (EP-Devices, EP Design, Belgium), 0.15 mL of warmed (37° C.) PBS was added to the apical surface of the cultures and returned to humidifier (37° C., 5% CO2 incubator) for 30 min before aspirating the apical surface to remove any mucus.
Compound treatments were then prepared. Compound dilutions, typically a 10 point concentration response with 1 in 3 dilution steps, were made in 100% DMSO before dilution 1 in 1000 into differentiation medium with a final DMSO concentration of 0.1% or 0.2% for the study. Compound containing medium was then transferred into the wells of a 24 well plate at 0.5 mL per well and warmed for 30 min in a 37° C. incubator prior to transferring washed inserts into the compound containing plates. Cells were incubated in compound containing medium (basolateral only) for 24 h prior to measurement in the MTECC24 system.
Following 24 hr treatment, compound dilutions were prepared again, diluted 1 in 1000 into 37° C. assay medium (F-12 Coon's modified, 20 mM HEPES pH7.4 with TRIS Base, No FCS or bicarbonate). Cells which were treated for 24 h with test compound were then transferred into plates containing 0.75 mL compound treatment in assay medium (basolateral) and 0.25 mL of the compound containing assay medium was added to the apical surface. The plates were then transferred to the heated plate compartments of the MTECC24 system for 45 min prior to measurements (this can also be done in a non-CO2 37° C. humidified incubator). Basolateral temperature should not exceed 36.5° C. and apical temperature should be approximately 35.5° C.
Modulators were added sequentially as follows while the MTECC24 instrument recorded the equivalent short circuit current (Ieq)
Prior to dilution into F-12 medium the stocks are as follows: Amiloride stock is 10 mM in H2O
Forskolin Stock is 10 mM in 100% DMSO
(S)-3-amino-6-methoxy-N-(3,3,3-trifluoro-2-hydroxy-2-methylpropyl)-5-(trifluoromethyl)picolinamide is 0.5 mM stock in 100% DMSO INH-172 (4-[[4-Oxo-2-thioxo-3-[3-trifluoromethyl)phenyl]-5-thiazolidinylidene]methyl]benzoic acid) stock is 30 mM in 100% DMSO […]

T1 sequence (P13569 with tags, fused parts or gaps DEL508-508): as above

| Structure (SMILES) | Emax [1] [%] | EC50 [1] [nM] | MTECC24 CFHBEC-Amax % [2] [%] | EC50 [2] [nM] |
| --- | --- | --- | --- | --- |
| CC(C)Cc1ccc(Cl)cc1OC1(C(=O)NS(=O)(=O)c2cccc(NC[C@H](C)O)n2)CC1 [Example 4-11, (S)-1-(5-Chloro-2-isobutylphenoxy)-N-((6-((2-hydroxypropyl)amino)pyridin-2-yl)sulfonyl)cyclopropane-1-carboxamide] | 115 | 3100 | 66 | 35 |
| O=C(NS(=O)(=O)c1cccc(N2CC(O)C2)n1)C1(Oc2cc(Cl)ccc2C2CC3(CCC3)C2)CC1 [Example 7-9, 1-(5-Chloro-2-(spiro[3.3]heptan-2-yl)phenoxy)-N-((6-(3-hydroxyazetidin-1-yl)pyridin-2-yl)sulfonyl)cyclopropane-1-carboxamide] | 300 | 2050 | 120.3 | 345 |
| Cc1ccc(C2CCCCC2)c(OC2(C(=O)NS(=O)(=O)c3cccc(N4CCC(C)(N)C4)n3)CC2)c1 (stereo not drawn) [Example 2-27, N-((6-(3-Amino-3-methylpyrrolidin-1-yl)pyridin-2-yl)sulfonyl)-1-(2-cyclohexyl-5-methylphenoxy)cyclopropanecarboxamide] | 181 | 2580 | 104 | 70 |
| Cc1ccc(C2CCCCC2)c(OC2(C(=O)NS(=O)(=O)c3cccc(N4CCNC(C(F)(F)F)C4)n3)CC2)c1 (stereo not drawn) [Example 2-37, 1-(2-Cyclohexyl-5-methylphenoxy)-N-((6-(3-(trifluoromethyl)piperazin-1-yl)pyridin-2-yl)sulfonyl)cyclopropanecarboxamide] | 306 | 1350 | 103 | 3 |
| Cc1ccc(C2CCCCC2)c(OC2(C(=O)NS(=O)(=O)c3cccc(N4CCN(c5ccccc5)CC4)n3)CC2)c1 [Example 2-54, 1-(2-Cyclohexyl-5-methylphenoxy)-N-((6-(4-phenylpiperazin-1-yl)pyridin-2-yl)sulfonyl)cyclopropane-1-carboxamide] | 513 | 650 | 70 | 14 |
| Cc1ccc(CC(C)C)c(OC2(C(=O)NS(=O)(=O)c3cccc(NC[C@H](C)O)n3)CC2)c1 [Example 4-9, (S)-N-((6-((2-Hydroxypropyl)amino)pyridin-2-yl)sulfonyl)-1-(2-isobutyl-5-methylphenoxy)cyclopropane-1-carboxamide] | 477 | 3460 | 70 | 23 |
| Cc1ccc(C2CCCCC2)c(OC2(C(=O)NS(=O)(=O)c3cccc(N4CCC(C)(N)CC4)n3)CC2)c1 [Example 2-9, N-((6-(4-Amino-4-methylpiperidin-1-yl)pyridin-2-yl)sulfonyl)-1-(2-cyclohexyl-5-methylphenoxy)cyclopropanecarboxamide] | 253 | 2570 | 121 | 103 |
| CC1(C)CCN(c2ccc(Cl)cc2OC2(C(=O)NS(=O)(=O)c3cccc(N4CCC(O)(c5cccc(C(F)(F)F)c5)CC4)n3)CC2)CC1 [Example 10-2, 1-(5-chloro-2-(4,4-dimethylpiperidin-1-yl)phenoxy)-N-((6-(4-hydroxy-4-(3-(trifluoromethyl)phenyl)piperidin-1-yl)pyridin-2-yl)sulfonyl)cyclopropanecarboxamide] | 746 | 460 | 161.6 | 182 |
| Cc1ccc(C2CCCC2)c(OC2(C(=O)NS(=O)(=O)c3cccc(NC[C@@H](C)O)n3)CC2)c1 [Example 4-6, (R)-1-(2-Cyclopentyl-5-methylphenoxy)-N-((6-((2-hydroxypropyl)amino)pyridin-2-yl)sulfonyl)cyclopropane-1-carboxamide] | 537 | 3350 | 78 | 12 |
| Cc1ccc(-c2cccc(C(F)(F)F)c2)c(OC2(C(=O)NS(=O)(=O)c3cccc(N4CC[C@H](O)C4)n3)CC2)c1 [Example 5-1, (S)-N-((6-(3-Hydroxypyrrolidin-1-yl)pyridin-2-yl)sulfonyl)-1-((4-methyl-3′-(trifluoromethyl)-[1,1′-biphenyl]-2-yl)oxy)cyclopropane-1-carboxamide] | 503 | 1950 | 88 | 16 |
| [2H]C1([2H])OC([2H])([2H])C([2H])([2H])N(c2cccc(S(=O)(=O)NC(=O)C3(Oc4cc(C)ccc4C4CCCCC4)CC3)n2)C1([2H])[2H] [Example 2-39, 1-(2-Cyclohexyl-5-methylphenoxy)-N-((6-(morpholino-d8)pyridin-2-yl)sulfonyl)cyclopropane-1-carboxamide] | 383 | 1800 | 67 | 2 |
| Cc1ccc(N2CCC(C)(C)CC2)c(OC2(C(=O)NS(=O)(=O)c3cccc(N4CC[C@H](O)C4)n3)CC2)c1 [Example 10-4, (S)-1-(2-(4,4-dimethylpiperidin-1-yl)-5-methylphenoxy)-N-((6-(3-hydroxypyrrolidin-1-yl)pyridin-2-yl)sulfonyl)cyclopropanecarboxamide] | 717 | 2630 | 103.3 | 482 |
| Cc1ccc(C2CCC(F)(F)C2)c(OC2(C(=O)NS(=O)(=O)c3cccc(N4CCC[C@@H](CO)C4)n3)CC2)c1 (single isomer, unassigned) [Example 4-7] | 314 | 2180 | 138 | 156 |
| Cc1ccc(C2CCCCC2)c(OC2(C(=O)NS(=O)(=O)c3cccc(N4CCN(c5ccc(F)cc5)CC4)n3)CC2)c1 [Example 2-55, 1-(2-Cyclohexyl-5-methylphenoxy)-N-((6-(4-(4-fluorophenyl)piperazin-1-yl)pyridin-2-yl)sulfonyl)cyclopropane-1-carboxamide] | 512 | 640 | 91 | 13 |
| Cc1ccc(C2CCCCC2)c(OC2(C(=O)NS(=O)(=O)c3cccc(N4CC5(CCN5C(=O)OC(C)(C)C)C4)n3)CC2)c1 [Example 2-30, Tert-butyl 6-(6-(N-(1-(2-cyclohexyl-5-methylphenoxy)cyclopropanecarbonyl)sulfamoyl)pyridin-2-yl)-1,6-diazaspiro[3.3]heptane-1-carboxylate] | 243 | 1790 | 69 | 23 |

Source: patent publication US20220033407A1, “N-(pyridin-2-ylsulfonyl)cyclopropanecarboxamide Derivatives and their Use in the Treatment of Disease” (NOVARTIS AG, priority 2018, published 2022)
